Values quoted from earlier work in PMC4128785 (Molecular Pharmaceutics, 2014).

Conditions: Sc(III) complex of DOTA

## O=C(O)CN1CCN(CC(=O)O)CCN(CC(=O)O)CCN(CC(=O)O)CC1 [DOTA, 1,4,7,10-tetraazacyclododecane-N,N′,N″,N‴-tetraacetic acid]
  thermodynamic stability (−log K): 27.0
